Test results from patent US20240239811A1, “5-(5-(PIPERIDIN-4-YL)THIENO[3,2-C]PYRAZOL-2-YL]INDAZOLE DERIVATIVES AND RELATED COMPOUNDS AS MODULATORS FOR SPLICING NUCLEIC ACIDS AND FOR THE T” (REMIX THERAPEUTICS INC., priority 2020, published 2024).

Assays:
Format in all cases: cell-based
HTT CJ mRNA = test: Gene panel canonical junction qPCR assay, HTT; settings: Table 6, decrease in CJ mRNA, read-out: HTT IC50 (decrease in CJ mRNA levels)
Description: (§1) Compounds described herein were used to modulate RNA transcript abundance in cells. The expression of a target mRNA was measured by detecting the formation of an exon-exon junction in the canonical transcript (CJ). A compound mediated exon-inclusion event was detected by observing an increase in formation of a new junction with an alternative exon (AJ). Real-time qPCR assays were used to detect these splicing switches and interrogate the potency of various compounds towards different target genes. A high-throughput real time quantitative PCR (RT-qPCR) assay was developed to measure these two isoforms of the mRNA (CJ and AJ) for an exemplary gene, HTT, together with a control housekeeping gene, GAPDH or GUSB or PPIA, used for normalization. Briefly, the A673 or K562 cell line was treated with various compounds described herein (e.g., compounds of Formula (I)). After treatment, the levels of the HTT mRNA targets were determined from each sample of cell lysate by cDNA synthesis followed by qPCR.
(§2) The A673 cell line was cultured in DMEM with 10% FBS. Cells were diluted with full growth media and plated in a 96-well plate (15,000 cells in 100ul media per well). The plate was incubated at 37° C. with 5% CO2 for 24 hours to allow cells to adhere. An 11-point 3-fold serial dilution of the compounds was made in DMSO then diluted in media in an intermediate plate. Compounds were transferred from the intermediate plate to the cell plate with the top dose at a final concentration of 10 uM in the well. Final DMSO concentration was kept at or below 0.25%. The cell plate was returned to the incubator at 37° C. with 5% CO2 for an additional 24 hours.
(§3) The K562 cell line was cultured in IMDM with 10% FBS. For K562, cells were diluted with full growth media and plated in either a 96-well plate (50,000 cells in 50 uL media per well) or a 384-well plate (8,000-40,000 cells in 45 uL media per well). An 11-point 3-fold serial dilution of the compounds were made in DMSO then diluted in media in an intermediate plate. Compound was transferred from the intermediate plate to the cell plate with the top dose at a final concentration of 10 uM in the well. Final DMSO concentration was kept at or below 0.25%. Final volume was 100 uL for 96-well plate and 50 uL for 384-well plate. The cell plate was then placed in an incubator at 37° C. with 5% CO2 for 24 hours.
(§4) The data analysis was performed by first determining the ΔCt vs the housekeeper gene. This ΔCt was then normalized against the DMSO control (ΔΔCt) and converted to RQ (relative quantification) using the 2^(−ΔΔCt) equation. The RQ were then converted to a percentage response by arbitrarily setting an assay window of 3.5 ΔCt for HTT-CJ and an assay window of 9 ΔCt for HTT-AJ. […] The percentage response was then fitted to the 4 parametric logistic equation to evaluate the concentration dependence of compound treatment. The increase in AJ mRNA is reported as AC50 (compound concentration having 50% response in AJ increase) while the decrease in CJ mRNA levels is reported as IC50 (compound concentration having 50% response in CJ decrease).
(§5) Additional studies were carried out for a larger panel of genes using the protocol provided above. The junction between flanking upstream and downstream exons was used to design canonical junction qPCR assays. At least one of the forward primer, reverse primer or the CY5-labeled 5′ nuclease probe (with 3′ quencher such as ZEN/Iowa Black FQ) was designed to overlap with the exon junction to capture the CJ mRNA transcript. BLAST was used to confirm the specificity of the probeset and parameters such as melting temperature, GC content, amplicon size, and primer dimer formation are considered during their design. Data for the decrease in CJ mRNA levels for three exemplary genes (HTT, SMN2, and Target C) analyzed in this panel are reported as IC50 (compound concentration having […] in CJ decrease).

Target C CJ mRNA = test: Gene panel canonical junction qPCR assay, Target C; settings: Table 6, decrease in CJ mRNA, read-out: Target C IC50 (decrease in CJ mRNA levels)
Description: as §1, §2, §3, §4, §5

SMN2 CJ mRNA = test: Gene panel canonical junction qPCR assay, SMN2; settings: Table 6, decrease in CJ mRNA, read-out: SMN2 IC50 (decrease in CJ mRNA levels)
Description: as §1, §2, §3, §4, §5

HTT mRNA = test: Splicing assay (RT-qPCR) monitoring HTT splice variants, canonical (CJ) and alternative (AJ) junction; settings: 50% response, A673 or K562 cell line, 24 hours; for IC50: decrease in CJ mRNA; for AC50: increase in AJ mRNA
Description: as §1
• Cells-to-CT 1-step kit: ThermoFisher A25602, Cells-to-CT lysis reagent: ThermoFisher 4391851C, TaqMan™ Fast Virus 1-Step Master Mix: ThermoFisher 4444436 • GAPDH: VIC-PL, ThermoFisher 4326317E (Assay: Hs99999905_ml)—used for K562/suspension cell lines • GUSB: VIC-PL, ThermoFisher 4326320E (Assay: Hs99999908_ml)—used for K562/suspension cell lines • PPIA: VIC-PL, ThermoFisher 4326316E (Assay: Hs99999904_ml)—used for A673/adherent cell lines
as §2, §3
The cells were then gently washed with 50 uL-100 uL cold PBS before proceeding to addition of lysis buffer. 30 uL-50 uL of room temperature lysis buffer with DNAse I (and optionally RNAsin) was added to each well. Cells were shaken/mixed thoroughly at room temperature for 5-10 minutes for lysis to take place and then 3 uL-5 uL of room temperature stop solution was added and wells were shaken/mixed again. After 2-5 minutes, the cell lysate plate was transferred to ice for RT-qPCR reaction setup. The lysates could also be frozen at −80° C. for later use.
In some cases, a direct lysis buffer was used. An appropriate volume of 3X lysis buffer (10 mM Tris, 150 mM NaCl, 1.5%-2.5% Igepal and 0.1-1 U/uL RNAsin, pH 7.4) was directly added to either K562 or A673 cells in media and mixed by pipetting 3 times. The plates were then incubated at room temperature with shaking/rocking for 20-50 minutes to allow for lysis to take place. After this time, the cell lysate plate was transferred to ice to set up for the RT-qPCR reactions. The lysates could also be frozen at −80° C. for later use. […]

Row | SMILES | IC50 (HTT CJ mRNA) | IC50 (Target C CJ mRNA) | IC50 (SMN2 CJ mRNA) | IC50 (HTT mRNA) | AC50 (HTT mRNA)
1 | Cc1cn2nc(-c3cc4sc(C5CCNCC5)nc4s3)cc(C)c2n1 [Compound 125, 4-(5-[2,8-dimethylimidazo[1,2-b]pyridazin-6-yl]thieno [2,3-d][1,3]thiazol-2-yl) piperidine] | 100 to 1000 nM | 1000 to 10000 nM | 100 to 1000 nM | 100 to 1000 nM | 100 to 1000 nM
2 | CN1CCC(c2cc3sc(-c4cc(F)c5nn(C)cc5c4)nc3s2)CC1 [Compound 151, 7-fluoro-2-methyl-5-[5-(1-methylpiperidin-4-yl)thieno[2,3-d][1,3]thiazol-2-yl]indazole] | < 100 nM | < 100 nM | < 100 nM | < 100 nM | < 100 nM
3 | Cc1cn2nc(-c3nc4sc(C5=CCNCC5)cc4s3)cc(C)c2n1 [Compound 198, 4-(2-{2,8-dimethylimidazo[1,2-b]pyridazin-6-yl}thieno[2,3-d][1,3]thiazol-5-yl)-1,2,3,6-tetrahydropyridine] | < 100 nM | 1000 to 10000 nM | < 100 nM | < 100 nM | 100 to 1000 nM
4 | Cn1cc2cc(-c3cc4cn(C5=CCOCC5)nc4s3)cc(F)c2n1 [Compound 177] | > 10000 nM | > 10000 nM | > 10000 nM | > 10000 nM | > 10000 nM
5 | Cn1cc2cc(-c3nc4sc(C5CCNCC5)cc4s3)c(O)c(F)c2n1 [Compound 206, 7-fluoro-2-methyl-5-[5-(piperidin-4-yl)thieno[2,3-d][1,3]thiazol-2-yl]indazol-6-ol] | < 100 nM | 100 to 1000 nM | < 100 nM | < 100 nM | < 100 nM
6 | Cn1cc2c(F)cc(-c3nc4sc(C5CCNCC5)cc4s3)cc2n1 [Compound 131, 4-fluoro-2-methyl-6-[5-(piperidin-4-yl)thieno[2,3-d][1,3]thiazol-2-yl]indazole] | 1000 to 10000 nM | 1000 to 10000 nM | 1000 to 10000 nM | 1000 to 10000 nM | 1000 to 10000 nM
7 | Cn1cc2cc(-c3cc4cn(C5CCNCC5)nc4s3)c(O)cc2n1 [Compound 209, 2-methyl-5-[2-(piperidin-4-yl)thieno[2,3-c]pyrazol-5-yl]indazol-6-ol] | 100 to 1000 nM | 1000 to 10000 nM | 100 to 1000 nM | 100 to 1000 nM | 1000 to 10000 nM
8 | Cc1cn2nc(-c3nc4sc(C5CNC5)cc4s3)cc(C)c2n1 [Compound 235, 3-(2-{2,8-dimethylimidazo[1,2-b]pyridazin-6-yl}thieno[2,3-d] [1,3]thiazol-5-yl) azetidine] | 1000 to 10000 nM | 1000 to 10000 nM | 100 to 1000 nM | 1000 to 10000 nM | 1000 to 10000 nM
9 | COc1c(-c2cc3cn(C4CCNCC4)nc3s2)cc(F)c2nn(C)cc12 [Compound 224] | > 10000 nM | > 10000 nM | > 10000 nM | > 10000 nM | > 10000 nM
10 | COc1c(-c2cc3cn(C4CCNCC4)nc3s2)nn2cc(C)nc(C)c12 [Compound 219, 4-(5-{3-methoxy-4,6-dimethylpyrazolo[1,5-a]pyrazin-2-yl}thieno[2,3-c]pyrazol-2-yl) piperidine] | > 10000 nM | > 10000 nM | 1000 to 10000 nM | > 10000 nM | > 10000 nM
11 | Cc1cn2cc(-n3cc4cc(C5CCNCC5)sc4n3)cc(Cl)c2n1 [Compound 165] | < 100 nM | 100 to 1000 nM | < 100 nM | < 100 nM | < 100 nM
12 | Cn1cc2cc(-c3nc4sc(N5CCC56CCNCC6)cc4s3)cc(F)c2n1 [Compound 201, 1-[2-(7-fluoro-2-methylindazol-5-yl)thieno[2,3-d] [1,3]thiazol-5-yl]-1,7-diazaspiro[3.5]nonane] | > 10000 nM | > 10000 nM | > 10000 nM | > 10000 nM | > 10000 nM
13 | Cn1cc2cc(-n3cc4cc(C5CCNCC5)sc4n3)c(O)cc2n1 [Compound 220] | 1000 to 10000 nM | 1000 to 10000 nM | 1000 to 10000 nM | 1000 to 10000 nM | 1000 to 10000 nM
14 | Cn1cc2c(O)c(-c3nc4sc(C5CCNCC5)cc4s3)ccc2n1 [Compound 231, 2-methyl-5-[5-(piperidin-4-yl)thieno[2,3-d][1,3]thiazol-2-yl]indazol-4-ol] | 1000 to 10000 nM | > 10000 nM | 100 to 1000 nM | 1000 to 10000 nM | 1000 to 10000 nM
15 | Cc1cn2nc(-n3cc4sc(C5CCNCC5)cc4n3)cc2c(C)n1 [Compound 171] | 100 to 1000 nM | 1000 to 10000 nM | 100 to 1000 nM | 100 to 1000 nM | 100 to 1000 nM
16 | Cc1cn2cc(-n3cc4cc(C5CCNCC5)sc4n3)cc(F)c2n1 [Compound 156] | < 100 nM | 100 to 1000 nM | < 100 nM | < 100 nM | 100 to 1000 nM
17 | Cc1cn2nc(-n3cc4cc(C5CCNCC5)sc4n3)cc(C)c2n1 [Compound 110, 4-(2-[2,8-dimethylimidazo[1,2-b]pyridazin-6-yl]thieno[2,3-c]pyrazol-5-yl) piperidine] | 100 to 1000 nM | – | < 100 nM | 100 to 1000 nM | 100 to 1000 nM
18 | Cn1cc2cc(-c3cc4nn(C5CCNCC5)cc4s3)cc(F)c2n1 [Compound 121, 7-fluoro-2-methyl-5-[2-(piperidin-4-yl)thieno[3,2-c]pyrazol-5-yl]indazole] | 100 to 1000 nM | – | < 100 nM | 100 to 1000 nM | 100 to 1000 nM
19 | Cn1cc2cc(-n3cc4sc(C5CCNCC5)cc4n3)ccc2n1 [Compound 100, 2-methyl-5-[5-(piperidin-4-yl)thieno[3,2-c]pyrazol-2-yl]indazole] | – | > 10000 nM | – | – | 1000 to 10000 nM
20 | Cn1cc2cc(-c3cc4cn([C@H]5CCNC[C@@H]5F)nc4s3)cc(F)c2n1 [Compound 190] | 100 to 1000 nM | – | – | 100 to 1000 nM | 100 to 1000 nM
